Results on 18 molecules are retold here after US20240246940A1, “HETEROARYL DERIVATIVE COMPOUND AND USE THEREOF” (VORONOI INC., priority 2021, published 2024).

In general, GI50 refers to the concentration that inhibits growth by half.

Common to all, as to format: cell-based
Experiment [1] concerns HaCaT cells (EGFR expressing cell line). Kind of experiment: HaCaT cell proliferation inhibitory activity (CellTiter-Glo, 72 hours). The conditions noted are these: Homo sapiens. In short, it runs like this: (§1)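 GI50 values derive from luminescence-based live-cell counts, expressed relative to control growth. Final compound ranges were 0.2 nM–10 μM for the two breast lines, […]–5 μM in N-87 and 0.8 nM–45 μM in HaCaT. Tests were run three times.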
(In ATP-based viability assays light output follows the ATP content of the culture.)

The test system of experiment [2] is N-87 cells (HER2 overexpressing cell line). Nature of the experiment: N-87 cell proliferation inhibitory activity (CellTiter-Glo, 72 hours). How it is done:
To evaluate the cell proliferation inhibitory activity of the compound according to the present invention on HER2 and EGFR kinases, the following method was performed using HER2 overexpressing cell lines (SK-BR-3, BT-474, and N-87) and EGFR expressing cell line (HaCaT).
McCOY'S 5A supplemented with 10% FBS was used for SK-BR-3 cells, RPMI-1640 medium supplemented with 20% FBS was used for BT-474 cancer cells, and RPMI-1640 medium supplemented with 10% FBS was used for N-87 cancer cells. DMEM supplemented with 10% FBS was used for HaCaT cells.
For SK-BR-3 cells, 5000 cells were aliquoted into each well of a white clear bottom 96 well plate (Corning) 48 hours before treatment with the compounds of Examples. For BT-474 cells, 5000 cells were aliquoted into each well of a white clear bottom 96 well plate (Corning) 48 hours before treatment with the compounds of Examples. For N-87 cells, 5000 cells were aliquoted into each well of a white clear bottom 96 well plate (Corning) 24 hours before treatment with the compounds of Examples. For HaCaT cells, 3000 cells were aliquoted into each well of a white clear bottom 96 well plate (Corning) 24 hours before treatment with the compounds of Examples. For SK-BR-3 cells and BT-474 cells, the compounds of Examples were diluted in dimethyl sulfoxide (three-fold dilution, a total of 11 concentrations) and injected each in an amount of 1 μl to a final concentration of 0.2 nM to 10 μM. For N-87 cells, the compounds of Examples were diluted in dimethyl sulfoxide (five-fold dilution, a total of 11 concentrations) and injected each in an amount of 0.5 μl to a final concentration of […] to 5 μM. For HaCaT cells, the compounds of Examples were diluted in dimethyl sulfoxide (three-fold dilution, a total of 11 concentrations) and injected each in an amount of 0.5 μl to a final concentration of 0.8 nM to 45 μM. For the measurement of living cells, the cells were stored at room temperature for 10 minutes using CellTiter-Glo cell viability reagent (Promega) after a certain period of time (SK-BR-3: 120 hours, BT-474: 120 hours, N-87: 72 hours, and HaCaT: 72 hours) post treatment with the compounds of Examples, and the luminescence intensity thereof was measured using a reader (SynergyNeo, Biotek). Each test was repeated three times.
The result values were calculated as a cell growth rate (%) compared to those of the control group. A graph was created using the GraphPad Prism version 5.0 program, and GI50 values were calculated.

In experiment [3] the test system is SK-BR-3 cells (HER2 overexpressing cell line). Kind of experiment: SK-BR-3 cell proliferation inhibitory activity (CellTiter-Glo, 120 hours). The conditions noted are these: Homo sapiens. In short, it runs like this: as §1
Experiment [4] deals with BT-474 cells (HER2 overexpressing cell line). Nature of the experiment: BT-474 cell proliferation inhibitory activity (CellTiter-Glo, 120 hours). The conditions noted are these: Homo sapiens. In short, it runs like this: as §1

Structures are written as SMILES. Bounds are passed on as bounds.

For the molecule `C=CC(=O)N1CCC(Oc2cc3c(Nc4cc(-c5ccc(F)c(N)c5)ccc4OC)ncnc3cc2OC)CC1` [Example 146, 1-(4-((4-((3′-amino-4′-fluoro-4-methoxy-[1,1′-biphenyl]-3-yl)amino)-7-methoxy-quinazolin-6-yl)oxy)piperidin-1-yl)prop-2-en-1-one], the GI50 was greater than 1000 nM in experiment [1], no more than 150 nM in experiment [2] and no more than 150 nM in experiment [3].

Consider `C=CC(=O)N1CCC(Oc2cc3c(Nc4cc(-c5cccc(NC(C)=O)c5)ccc4OC)ncnc3cc2OC)CC1` [Example 224, N-(3′-((6-((1-acryloyl-piperidin-4-yl)oxy)-7-methoxy-quinazolin-4-yl)amino)-4′-methoxy-[1,1′-biphenyl]-3-yl)acetamide], for which the GI50 in experiment [1], in experiment [2] and in experiment [4] was no more than 150 nM each time.

`C=CC(=O)N1CC[C@@H](Oc2cc3c(Nc4cc(-c5ccco5)ccc4OC)ncnc3cc2OC)[C@H](F)C1` [Example 173, 1-((3R,4R)-3-fluoro-4-((4-((5-(furan-2-yl)-2-methoxyphenyl)amino)-7-methoxy-quinazolin-6-yl)oxy)piperidin-1-yl)prop-2-en-1-one]: the GI50 in experiment [1], in experiment [2] and in experiment [4] was no more than 150 nM each time.

Consider `C=CC(=O)N1CCC(Oc2cc3c(Nc4cc(-c5ccc(F)c(O)c5)ccc4OC)ncnc3cc2OC)CC1` [Example 168, 1-(4-((4-((4′-fluoro-3′-hydroxy-4-methoxy-[1,1′-biphenyl]-3-yl)amino)-7-methoxy-quinazolin-6-yl)oxy)piperidin-1-yl)prop-2-en-1-one], for which the results for the GI50 in experiment [1], in experiment [2] and in experiment [4] were 150 to 1000 nM, no more than 150 nM and no more than 150 nM, respectively.

`C=CC(=O)N1CCC(Oc2cc3c(Nc4cc(-c5ccc(F)c(NC(=O)C6CC6)c5)ccc4OC)ncnc3cc2OC)CC1` [Example 4, N-(3′-((6-((1-acryloylpiperidin-4-yl)oxy)-7-methoxy-quinazolin-4-yl)amino)-4-fluoro-4′-methoxy-[1,1'-biphenyl]-3-yl)cyclopropan-carboxamide]: the GI50 is greater than 1000 nM in experiment [1], no more than 150 nM in experiment [2] and no more than 150 nM in experiment [4].

Consider `C=CC(=O)N1CCC(Oc2cc3c(Nc4cc(-c5ccc(F)c(NC(C)=O)c5)ccc4OC)ncnc3cc2OC)CC1` [Example 226, N-(3′-((6-((1-acryloyl-piperidin-4-yl)oxy)-7-methoxy-quinazolin-4-yl)mino)-4-fluoro-4′-methoxy-[1,1'-biphenyl]-3-yl)acetamide], for which the GI50 in experiment [1] was greater than 1000 nM; in experiment [2], no more than 150 nM; in experiment [4] it was no more than 150 nM.

For the molecule `C=CC(=O)N1CCC(Oc2cc3c(Nc4cc(-c5cc(N)c(F)cc5F)ccc4OC)ncnc3cc2OC)CC1` [Example 170, 1-(4-((4-((5′-amino-2′,4′-difluoro-4-methoxy-[1,1′-biphenyl]-3-yl)amino)-7-methoxy-quinazolin-6-yl)oxy)piperidin-1-yl)prop-2-en-1-one], the GI50 in experiment [1], in experiment [2] and in experiment [4] was no more than 150 nM throughout.

As to `C=CC(=O)N1CCC(Oc2cc3c(Nc4cc(-c5ccc(F)cc5Cl)ccc4OC)ncnc3cc2OC)CC1` [Example 191, 1-(4-((4-((2′-chloro-4′-fluoro-4-methoxy-[1,1′-biphenyl]-3-yl)amino)-7-methoxy-quinazolin-6-yl)oxy)piperidin-1-yl)prop-2-en-1-one], the GI50 in experiment [1], in experiment [2] and in experiment [4] was no more than 150 nM throughout.

As to `C=CC(=O)N1CCC(Oc2cc3c(Nc4cc(-c5ccc(F)c(N)c5F)ccc4OC)ncnc3cc2OC)CC1` [Example 158, 1-(4-((4-((3′-amino-2′,4′-difluoro-4-methoxy-[1,1′-biphenyl]-3-yl)amino)-7-methoxy-quinazolin-6-yl)oxy)piperidin-1-yl)prop-2-en-1-one], the 50% growth inhibitory concentration (GI50) in experiment [1], in experiment [2] and in experiment [4] was no more than 150 nM in each case.

`C=CC(=O)N1CCC(Oc2cc3c(Nc4cc(-c5cc(C(F)(F)F)ccc5F)ccc4OC)ncnc3cc2OC)CC1` [Example 192, 1-(4-((4-((2′-fluoro-4-methoxy-5′-(trifluoromethyl)-[1,1′-biphenyl]-3-yl)amino)-7-methoxy-quinazolin-6-yl)oxy)piperidin-1-yl)prop-2-en-1-one]: the GI50 in experiment [1], in experiment [2] and in experiment [4] was no more than 150 nM in each case.

For `C=CC(=O)N1CCC(Oc2cc3c(Nc4cc(-c5ccc(F)cc5F)ccc4OC)ncnc3cc2O[C@@H]2CCOC2)CC1` [Example 281, (R)-1-(4-((4-((2′,4′-difluoro-4-methoxy-[1,1′-biphenyl]-3-yl)amino)-7-((tetrahydrofuran-3-yl)oxy)quinazolin-6-yl)oxy)piperidin-1-yl)prop-2-en-1-one], the GI50 in experiment [1], in experiment [2] and in experiment [3] was no more than 150 nM in each case.

Consider `C=CC(=O)N1CCC(Oc2cc3c(Nc4cc(-c5ccco5)ccc4OC)ncnc3cc2OC)[C@H](C)C1` (stereo in doubt) [Example 169, 1-((3R,4S)-4-((4-((5-(furan-2-yl)-2-methoxyphenyl)amino)-7-methoxy-quinazolin-6-yl)oxy)-3-methylpiperidin-1-yl)prop-2-en-1-one], for which the GI50 in experiment [1], in experiment [2] and in experiment [4] was no more than 150 nM throughout.

As to `C=CC(=O)N1CC(Oc2cc3c(Nc4cc(-c5ccc(F)c(NC(=O)C6CC6)c5F)ccc4OC)ncnc3cc2OC)C1` [Example 3, N-(3′-((6-((1-acryloylazetidin-3-yl)oxy)-7-methoxy-quinazolin-4-yl)amino)-2,4-difluoro-4′-methoxy-[1,1′-biphenyl]-3-yl)cyclopropan-carboxamide], the values for the concentration for 50% growth inhibition (GI50) in experiment [1], in experiment [2] and in experiment [4] were 150 to 1000 nM, no more than 150 nM and no more than 150 nM, respectively.

`C=CC(=O)N1CCC(Oc2cc3c(Nc4cc(-c5ccc(F)c(NC(C)=O)c5F)ccc4OC)ncnc3cc2OC)CC1` [Example 1, N-(3′-((6-((1-acryloylpiperidin-4-yl)oxy)-7-methoxyquinazolin-4-yl)amino)-2,4-difluoro-4′-methoxy-[1,1′-biphenyl]-3-yl)acetamide]: the concentration for 50% growth inhibition (GI50) in experiment [1] was greater than 1000 nM; in experiment [2], no more than 150 nM; in experiment [4], no more than 150 nM.

With `C=CC(=O)N1CCC(Oc2cc3c(Nc4cc(-c5ccc(F)c(NC(=O)C6CC6)c5F)ccc4OC)ncnc3cc2OC)CC1` [Example 2, N-(3'-((6-((1-acryloylpiperidin-4-yl)oxy)-7-methoxy-quinazolin-4-yl)amino)-2,4-difluoro-4′-methoxy-[1,11 biphenyl]-3-yl)cyclopropan-carboxamide], the values for the GI50 in experiment [1], in experiment [2] and in experiment [4] were greater than 1000 nM, no more than 150 nM and no more than 150 nM, respectively.

On to `C=CC(=O)N1CCC(Oc2cc3c(Nc4cc(-c5cccc(N6CCC6)c5)ccc4OC)ncnc3cc2OC)CC1` [Example 225, 1-(4-((4-((3′-(azetidin-1-yl)-4-methoxy-[1,1′-biphenyl]-3-yl)amino)-7-methoxy-quinazolin-6-yl)oxy)piperidin-1-yl)prop-2-en-1-one], for which the GI50 was greater than 1000 nM in experiment [1], no more than 150 nM in experiment [2] and 150 to 1000 nM in experiment [4].

`C=CC(=O)N1CCC(Oc2cc3c(Nc4cc(-c5ccc(F)c(N(C)C)c5F)ccc4OC)ncnc3cc2OC)CC1` [Example 155, 1-(4-((4-((3′-(dimethylamino)-2′,4′-difluoro-4-methoxy-[1,1′-biphenyl]-3-yl)amino)-7-methoxy-quinazolin-6-yl)oxy)piperidin-1-yl)prop-2-en-1-one]: the GI50 in experiment [1], in experiment [2] and in experiment [4] was no more than 150 nM each time.

In the case of `C=CC(=O)N1CC[C@H](Oc2cc3c(Nc4cc(-c5ccco5)ccc4OC)ncnc3cc2OC)[C@H](F)C1` [Example 154, 1-((3R,4S)-3-fluoro-4-((4-((5-(furan-2-yl)-2-methoxy-phenyl)amino)-7-methoxy-quinazolin-6-yl)oxy)piperidin-1-yl)prop-2-en-1-one], the GI50 in experiment [1], in experiment [2] and in experiment [4] was no more than 150 nM in each case.
